Results taken from patent US20090203685A1, “ANTI-PROLIFERATIVE COMPOUNDS FROM A 3-ARYL-COUMARINE OR 3-ARYL-QUINOLIN-2-ONE AND USES THEREOF” (EOS (ETHICAL ONCOLOGY SCIENCE) S.P.A., priority 2006, published 2009).

Tests used:
[1] = test system: U937 cells; assay: Proliferation test ViaLight HS, U937 cells (Example 8); assay type: cell-based, human; details: Homo sapiens, U-937, 72 h, 72 h incubation; range = multiple experiments, otherwise individual experiments
Experimental: (§1) 2C Proliferation test ViaLight® HS High Sensitivity Cytotoxicity and Cell Proliferation BioAssay Kit
(§2) This protocol allows the determination of the cytostatic and cytotoxic activities of compounds to be tested on mammalian cells in culture and was carried out essentially according to the manufacturer's recommendations.
(§3) Cells are suspended in 15 mL of their respective media and are enumerated. They are then diluted in their media in order to obtain: • 2500 cells per 90 μL per well for MRC5 cells • 5000 cells per 90 μL per well for all other cell lines. Cells are then seeded in a 96 well plate, and incubated at least 4 hours in the incubator at 37° C. in 5% CO2.
The molecules to be tested are diluted in DMEM with DMSO in order to obtain the following dilutions: • dilution at 250 μM/1% DMSO • dilution at 50 μM/1% DMSO • dilution at […] • dilution at 2 μM/1% DMSO • dilution at 400 nM/1% DMSO • dilution at 80 nM/1% DMSO For each well comprising 90 μL of cell suspension, 10 μL of a solution of the compound to be tested is added, with the 6 different concentrations. The plate is then incubated during 72 hours. One control plate is contacted with 10 μL of DMEM 1% DMSO, without compound to be tested. 50 μL of lysis buffer (test Vialight® lysis buffer) is added in each well of the control plate and the plate is incubated 10 minutes under hood.
Then, 100 μL of test buffer (test Vialight® test buffer) is added in each well and the control plate is incubated during 2 minutes. The luminescence is read in each well. The mean luminescence for each type of cells is called T0.
After the 72 h incubation, in order to determine the viability, 50 μL of lysis buffer (test Vialight® lysis buffer) is added in each well of the plates and the plates are incubated 10 minutes under hood.
(§4) Then, 100 μL of test buffer (test Vialight® test buffer) is added in each well and the plates are incubated during 2 minutes. The luminescence is read in each well. For each type of cell, the mean luminescence in the well not containing the compound is called C72 and the mean luminescence in well containing a given concentration of a compound to be tested is called T72. For each dilution (concentration of compound to be tested), T0 and T72 values are compared.
The graph is plotted for the different concentrations of compound and • GI50 (50% of growth inhibitory) is determined, this is the dose producing 50% of cell growth (intersection at Y=50); • TGI (total growth inhibitory) is determined on the graph, this is the dose producing the total arrest of the cell growth (intersection at Y=0); and • LC50 (50% of lethal concentration) is determined, this is the dose producing the death of 50% of the cells (intersection at Y=−50).
Following the protocol described in Example 2C, different compounds according to the invention have been tested for their cytostatic and cytotoxic activities on mammalian cells in culture (specifically U937 cells).
The GI50 (50% of growth inhibitory) has been determined for all the following compounds, i.e. the dose producing 50% of cell growth inhibition.
Where the GI50 provided is in the form of a range, it means that multiple experiments, whose results fall within the range indicated, were performed. Otherwise, results of individual experiments are provided.

[2] = test system: lung, prostate, breast, colon, melanoma, and myeloid tumor cells; assay: Inhibition of cell proliferation in vitro, panel of tumor cells (Example 3); assay type: cell-based; details: Homo sapiens; range over tumor cell lines, printed as 50 nM to 1 μM; 72 h; read-out: IC50s of growth inhibition
Experimental: as §1, §2
as §3, with “CO2. […]” for “CO2.”
Then, 100 μL of test buffer (test Vialight® test buffer) is added in each well and the control plate is incubated during 2 minutes. The luminescence is read in each well. The mean luminescence for each type of cells is called T0. […]
as §4, with “For each dilution (concentration of compound to be tested), T0 and T72 values are compared.” left out

[3] = Viability (propidium iodide staining), A375; assay type: cell-based; details: human, A375 cells (melanoma), 500 nM
Experimental: (§5) Propidium iodide (PI) cannot normally cross the cell membrane; it is thus excluded by viable cells but not from dying or dead cells, having a damaged membrane, where it intercalates into double-stranded nucleic acids and fluoresces when excited at 488 nm.
(§6) The cells are pelleted by gentle centrifugation 1200 rpm/5 min/4° C., then the supernatant is discarded and replaced by 1 mL of fresh medium. One hundred microliters of propidium iodide (40 μg/mL) are added to 400 μL of the cell suspension in a FACS tube and viability is measured by flow cytometry as the percentage of cells whose fluorescence recorded on FL-3 channel is comprised between 0 and 2.
(§7) Viability and cell cycle profile, tested with compound (01), at 500 nM: […]

[4] = Viability (propidium iodide staining), Jurkat; assay type: cell-based; details: human, Jurkat cells, 500 nM
Experimental: as §5, §6, §7

[5] = test system: U937; assay: Cell cycle analysis, U937; assay type: cell-based, human; details: 500 nM
Experimental: (§8) The cells are pelleted by gentle centrifugation 1200 rpm/5 min/4° C., then the supernatant is discarded and the cells are fixed with 1 mL of PBS/Ethanol 70% overnight at −20° C. The tubes are then centrifuged during 5 minutes at 1200 rpm and the supernatant is removed. The pellet is then re-suspended in 450 μL of PBS before 50 μL of RNAse (1 mg/mL) and 5 μL of propidium iodide (2 mg/mL) are added. Each tube is left 30 minutes at 37° C. and immediately analysed by flow cytometry after incubation.
A biparametric dot plot representation FL3 peak vs FL3 integer is plotted and the cells located on the diagonal are gated and analysed on a histogram representing the number of cells as a function of the FL3 peak.
To assess the relative position of cursors defining relative proportion of cells in subG1, G1, S or G2 phase of the cell cycle, G1 and G2 peaks are to be defined first:
The G1 peak is defined as the major peak in absence of treatment (generally X=200);
The G2 peak is centered on the value which is twice the value of the G1 peak (generally X=400).
Cells in subG1 phase are plotted in the part of the histogram preceding the G1 peak (generally X<200) and cells in S phase are enclosed in the area between the G1 and G2 peaks.
On this graphic, subG1, G1, S and G2/M phases of the cell cycle can thus be defined.
as §7

[6] = test system: lymphoid and myeloid tumor cells; assay: Viability and cell cycle profile, conclusion for lymphoid and myeloid tumor cells; assay type: cell-based; details: 500 nM; apoptotic cell cycle profile
Experimental: as §5, §6, §8, §7

[7] = test system: prostate and lung tumor cells; assay: Viability and cell cycle profile, conclusion for prostate and lung tumor cells; assay type: cell-based; details: 500 nM; cell cycle arrest at entry into mitosis
Experimental: as §5, §6, §8, §7

GI50 [1]: 59 to 200 nM
IC50 [2]: 50 to 1000 nM
Structure (SMILES): COc1cc(NC(=S)NC(=O)/C=C/c2ccco2)ccc1-c1cc2ccccc2oc1=O [Compound 01, (2E)-3-(2-furyl)-N-({[3-methoxy-4-(2-oxo-2H-chromen-3-yl)phenyl]amino}carbonothioyl)acrylamide]
viability at 48 h, 0.5 µM ([3]; 48 h): 65%
viability at 72 h, 0.5 µM ([3]; 72 h): 35%
viability at 48 h, 0.5 µM ([4]; 48 h): 4%
viability at 72 h, 0.5 µM ([4]; 72 h): 1%
Cell cycle profile - 72 h [5]: Strong sub-G1
Effect on lymphoid and myeloid tumor cells [6]: cytotoxic effect
Effect on prostate and lung tumor cells [7]: cytostatic effect
